Assay results published in patent US5607931A, “1,2-disubstituted ethly amides as inhibitors of ACAT” (Schering Corporation, priority 1995, dated 1997).
pIC50: −log10 of the molar value.

Experiments:
[1] = target: T1, ACAT (Rattus norvegicus, UniProt Q7TQM4); assay: ACAT Assay (in vitro), transfer of tritiated oleic acid from acyl-CoA to cholesterol, rat liver microsomes; format: biochemical; settings: for inhibition at 10 µM: read-out: % ACAT Inhib. @10 μM; for pIC50: 0.1 to 25 μM
T1 construct: Rat liver microsomes are used as the source of ACAT; from tissue; host or cells: rat liver microsomes
T1 sequence (Q7TQM4 1-524): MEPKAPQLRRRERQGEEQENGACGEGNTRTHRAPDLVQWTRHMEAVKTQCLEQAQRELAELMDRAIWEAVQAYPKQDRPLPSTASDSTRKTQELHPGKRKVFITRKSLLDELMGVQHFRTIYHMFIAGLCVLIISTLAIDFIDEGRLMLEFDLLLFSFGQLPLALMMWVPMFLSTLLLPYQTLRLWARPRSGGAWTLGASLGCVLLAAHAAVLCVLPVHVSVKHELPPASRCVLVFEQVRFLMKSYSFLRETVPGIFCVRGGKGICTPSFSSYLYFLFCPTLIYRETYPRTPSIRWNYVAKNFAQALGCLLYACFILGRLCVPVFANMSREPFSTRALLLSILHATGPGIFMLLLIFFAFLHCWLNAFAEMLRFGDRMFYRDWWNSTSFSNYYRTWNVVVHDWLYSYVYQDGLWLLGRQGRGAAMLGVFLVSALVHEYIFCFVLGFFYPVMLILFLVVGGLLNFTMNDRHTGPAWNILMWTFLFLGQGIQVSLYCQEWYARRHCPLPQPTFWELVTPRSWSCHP
Protocol: This assay measures the activity of ACAT by measuring the ACAT-mediated transfer of tritiated oleic acid from acyl-CoA to cholesterol to give labelled cholesterol oleate. Rat liver microsomes are used as the source of ACAT. Assays are performed in round bottom microtiterplates using a total incubation volume of 50 μL. Each incubation well receives 10 μL assay buffer (0.5M KHPO4, 10 μM dithiothreitol, pH 7.4), 7.5 μL of 40 mg/mL BSA (Bovine Serum Albumin) and 12.5 μg of microsomal protein. The test compound (in sufficient amount to bring the final concentration to from 0.1 to 25 μM), reference compound, or vehicle control is added and the final volume brought to 47 μL. The microtiterplate is then floated on the surface of a 37° C. water bath for fifteen minutes. Incubations are started by the addition of 3 μL ^3 H-acyl CoA (1 μCi/well, final concentration of 10 μM acyl CoA). The plate is then returned to the water bath for 15 minutes. The incubations are then terminated by application of 15 μL from each incubation to individual lanes on a thin layer plate (Silica Gel GF 20×20 cm). Standards are applied to several lanes so that the cholesterol ester band can be identified. After drying, the plates are eluted with 90:10:1 petroleum ether:diethyl ether:acetic acid. The standards are visualized via iodine vapor, and the regions corresponding to cholesterol ester are scraped into 7 mL scintillation vials. 4 mL of scintillant are added to each vial, and the radioactivity quantified. Background count is determined by the boiled controls. Full activity is determined by activity in the presence of vehicle. The percent inhibition is calculated by subtracting the background from both control and test samples, and the test value is calculated as a percentage of the control. For IC50 determinations, the inhibition is plotted against drug does on a log scale and the concentration at which 50% inhibition is obtained is determined.

[2] = test system: liver cholesterol esters; assay: In Vivo Assay of Hypolipidemic Agents Using the Hyperlipidemic Hamster; settings: Mesocricetus auratus, 168 h; 50 mpk, oral gavage in corn oil once daily, seven days; 0.5% cholesterol diet; percent reduction versus control; read-out: In Vivo 50 mpk % Redn. L/CE
Protocol: In Vivo Assay of Hypolipidemic Agents Using the Hyperlipidemic Hamster
Hamsters are separated into groups of six and given a control cholesterol diet (Purina Chow #5001 containing 0.5% cholesterol) for seven days. Diet consumption is monitored to determine dietary cholesterol exposure in the face of test compounds. The animals are dosed with the test compound once daily beginning with the initiation of diet. Dosing is by oral gavage of 0.2 mL of corn oil alone (control group) or solution (or suspension) of test compound in corn oil. All animals moribund or in poor physical condition are euthanized. After seven days, the animals are anesthetized by IM injection of ketamine and sacrificed by decapitation. Blood is collected into vacutainer tubes containing EDTA for plasma lipid analysis and the liver excised for tissue lipid analysis. Data is reported as percent reduction of lipid versus control.

SMILES | inhibition at 10 µM [1] | pIC50 [1] | change in vivo at 50 mg/kg [2]
CCCCCCCCCCCCCCCC(=O)NC(C(=O)N1CCN(C)CC1)c1ccccc1 (centres unmarked) | 95% | 5.74 | -17%
CCCCCCCCCCCCC(C)(C)C(=O)NC(CN1CCN(C)CC1)c1ccccc1 (centres unmarked) | 95% | 6.54 | -44%
CCCCCCCC/C=C\CCCCCCCC(=O)NC(CN1CCC(OC)CC1)c1ccccc1 (centres unmarked) | 93% | 6.82 | -24%
CCCCCCCCCCC(C)(C)C(=O)NC(CN1CCN(C)CC1)c1ccccc1 (centres unmarked) | 94% | 6.41 | 0%
O=C(NC(CN1CCC(O)CC1)c1ccccc1)C(c1ccccc1)c1ccccc1 (centres unmarked) | 83% | 5.52 | -25%
O=C(NC(CN1CCC(=NO)CC1)c1ccccc1)C(c1ccccc1)c1ccccc1 (centres unmarked) | 94% | 6.40 | 0%
O=C(NC(CN1CCC2(CC1)OCCO2)c1ccccc1)C(c1ccccc1)c1ccccc1 (centres unmarked) | 94% | 6.52 | -26%
O=C(NC(CN1CCOCC1)c1ccccc1)C(c1ccccc1)c1ccccc1 (centres unmarked) | 94% | 5.52 | -15%
CCCCCCCC/C=C\CCCCCCCC(=O)NC(CN1CCN(C(=O)OC(C)(C)C)CC1)c1ccccc1 (centres unmarked) | 100% | 7.22 | -22%
CCCCCCCCCCCCCC(=O)NC(CN1CCN(C)CC1)c1ccccc1 (centres unmarked) | 81% | 5.15 | 0%
O=C(NC(CN1CCCCC1)c1ccccc1)C(c1ccccc1)c1ccccc1 (centres unmarked) | 64% |  | 0%
CN1CCN(CC(NC(=O)CCCCCCCCCCOc2ccccc2)c2ccccc2)CC1 (centres unmarked) | 80% | 5.40 | 0%
CCCCCCCC/C=C\CCCCCCCC(=O)NC(CN1CCNCC1)c1ccccc1 (centres unmarked) | 64% |  | -54%
CCCCCCCCCCCCCCCC(=O)NC(CN1CCC2(CC1)OCCO2)c1ccccc1 (centres unmarked) | 99% | 6.80 | -19%
CCCCCC/C=C\CCCCCCCC(=O)NC(CN1CCN(C)CC1)c1ccccc1 (centres unmarked) | 97% | 6.80 | -37%
COC1CCN(CC(NC(=O)C(c2ccccc2)c2ccccc2)c2ccccc2)CC1 (centres unmarked) | 88% | 6.00 | -30%
CCCCCCCC/C=C\CCCCCCCC(=O)NC(CN1CCN(C)CC1)c1ccccc1 (centres unmarked) | 98% | 6.52 | -55%
CCCCCCCCCCCCCCCCCC(=O)NC(CN1CCN(C)CC1)c1ccccc1 (centres unmarked) | 90% | 6.30 | -25%
CCCCCCCC/C=C\CCCCCCCC(=O)NC(CN1CCCCC1)c1ccccc1 (centres unmarked) | 94% | 5.92 | -12%

SMILES | inhibition at 10 µM [1] | pIC50 [1] | change in vivo at 50 mg/kg [2]
CCCCCCCC/C=C\CCCCCCCC(=O)NC(CN1CCC(NC(=O)C(F)(F)F)CC1)c1ccccc1 (centres unmarked) | 90% | 6.10 | 0%
CCCCCCCC/C=C\CCCCCCCC(=O)NC(CN1CCC(OC)(OC)CC1)c1ccccc1 (centres unmarked) | 93% | 6.30 | -18%
CCCCCCCC/C=C\CCCCCCCC(=O)NC(CN1CCC(O)CC1)c1ccccc1 (centres unmarked) | 98% | 6.47 | -25%
CCCCCCCC/C=C\CCCCCCCC(=O)NC(CN1CCC(=O)CC1)c1ccccc1 (centres unmarked) | 100% | 6.74 | 
CCCCCCCCCCCC(=O)NC(CN1CCN(C)CC1)c1ccccc1 (centres unmarked) | 58% |  | 0%
CC(=O)CC(=O)OC1CCN(CC(NC(=O)C(c2ccccc2)c2ccccc2)c2ccccc2)CC1 (centres unmarked) | 53% |  | 
CN1CCN(CC(NC(=O)C(c2ccccc2)c2ccccc2)c2ccccc2)CC1 (centres unmarked) | 71% | 5.35 | -39%
CCCCCCCC/C=C\CCCCCCCC(=O)NC(CN1CCOCC1)c1ccccc1 (centres unmarked) | 99% | 6.52 | -21%
CC(=O)OC1CCN(CC(NC(=O)C(c2ccccc2)c2ccccc2)c2ccccc2)CC1 (centres unmarked) | 59% |  | -25%
CCCCCCCC/C=C\CCCCCCCC(=O)NC(Cc1ccccc1)C1CCCCC1 (centres unmarked) | 90% | 6.77 | 0%
O=C(CCCCCCCCCCOc1ccccc1)NC(CN1CCCCC1)c1ccccc1 (centres unmarked) | 84% | 5.30 | 0%
O=C1CCN(CC(NC(=O)C(c2ccccc2)c2ccccc2)c2ccccc2)CC1 (centres unmarked) | 90% | 6.30 | 0%
CCCCCCCC/C=C\CCCCCCCC(=O)NC(CN1CCC(N)CC1)c1ccccc1 (centres unmarked) | -90% |  | -59%
CCCCCCCC/C=C\CCCCCCCC(=O)NC(CN1CCC2(CCCC2)CC1)c1ccccc1 (centres unmarked) | 59% |  | 0%
CCCCCCCC/C=C\CCCCCCCC(=O)NC(CN1CCC2(CC1)OCCO2)c1ccccc1 (centres unmarked) | 93% | 8.00 | -35%
CCCCCCCCCCCCCCCC(=O)NC(CN1CCN(C)CC1)c1ccccc1 (centres unmarked) | 87% | 5.92 | -60%
CCCCCCCC/C=C\CCCCCCCC(=O)NC(CN1CCC(=NO)CC1)c1ccccc1 (centres unmarked) | 100% | 7.52 | -21%
CCCCCCCC/C=C\CCCCCCCC(=O)NC(CC1CCCCC1)c1ccccc1 (centres unmarked) | 92% | 6.74 | 
CCCCCCCCCCCCCCC(C)(C)C(=O)NC(CN1CCN(C)CC1)c1ccccc1 (centres unmarked) | 97% | 5.96 | -40%
